Source: patent publication US20150315218A1, “SALTS OF PRODRUGS OF PIPERAZINE AND SUBSTITUTED PIPERIDINE ANTIVIRAL AGENTS” (Bristol-Myers Squibb Company, priority 2004, published 2015)
Where a name gives a salt, the structure may show the parent alone.

Tests used:
dog hepatocytes = experiment: Hydrolysis of prodrug in hepatocytes (dog); type: in vitro ADME; settings: dog hepatocytes, qualitative
Method: (§1) The in vitro intrinsic clearance of Ibb in hepatocytes (Clint) was calculated as follows: Clint(μL/min/million cells)=Rate/CE where Rate is the rate of metabolism in hepatocytes (pmol/min/million cells), and CE is the concentration of Ibb in the incubation. The in vitro intrinsic clearance of Icb in hepatocytes (Clint) was calculated as follows: Clint(μL/min/million cells)=Rate/CE where Rate is the rate of metabolism in hepatocytes (pmol/min/million cells), and CE is the concentration of Icb in the incubation.

monkey hepatocytes = experiment: Hydrolysis of prodrug in hepatocytes (monkey); type: in vitro ADME; settings: monkey hepatocytes, qualitative
Method: as §1

human hepatocytes = experiment: Hydrolysis of prodrug in hepatocytes (human); type: in vitro ADME; settings: human hepatocytes, qualitative
Method: as §1

in vitro [1] = settings: rat, serum
Method: (§2) The stability of Iab was studied in fresh blood and serum from rat, dog, monkey and human (n=2). The blood was collected in vacutainers containing K2EDTA (Becton Dickinson, Franklin Lakes, N.J.). The serum was collected in vacutainers containing no anticoagulant. Iab was incubated at a starting concentration of approximately 10 μM for 60-90 min at 37° C. Serial samples were taken at the pre-determined times. Aliquots of blood samples (200 μL) were first mixed with 100 μL of water followed by 400 μL of acetonitrile. The serum samples (50 μL) were added into microtainers containing K2EDTA (Becton Dickinson, Franklin Lakes, N.J.) followed by the addition of 100 μL of acetonitrile. The supernatant was analyzed for both Iab and IVa by LC/MS/MS. The stability of Ibb was studied in fresh blood and serum from rat, dog, monkey and human (n=2). The blood was collected in vacutainers containing K2EDTA (Becton Dickinson, Franklin Lakes, N.J.). The serum was collected in vacutainers containing no anticoagulant. Ibb was incubated at a starting concentration of approximately 15 μM for 90 min at 37° C. Serial samples were taken at the pre-determined times. Aliquots of blood samples (200 μL) were first mixed with 100 μL of water followed by 400 μL of acetonitrile. The serum samples (50 μL) were added into microtainers containing K2EDTA (Becton Dickinson, Franklin Lakes, N.J.) followed by the addition of 100 μL of acetonitrile. […] The stability of Icb was studied in fresh blood and serum from rat, dog, monkey and human (n=2). The blood was collected in vacutainers containing K2EDTA (Becton Dickinson, Franklin Lakes, N.J.). The serum was collected in vacutainers containing no anticoagulant. Icb was incubated at a starting concentration of approximately 10 μM for 90 min at 37° C. Serial samples were taken at the pre-determined times. Aliquots of blood samples (200 μL) were first mixed with 100 μL of water followed by 400 μL of acetonitrile. The serum samples (50 μL) were added into microtainers containing K2EDTA (Becton Dickinson, Franklin Lakes, N.J.) followed by the addition of 100 μL of acetonitrile.

in vitro [2] = settings: monkey, serum
Method: as §2

[3] = Stability of prodrug in Tris-HCl buffer; settings: for stability / conversion of prodrug to parent in Tris-HCl buffer: 60 min (Iab) or 90 min (Ibb, Icb); for Ibb: Ibb in Tris-HCl buffer, 37° C., n = 2
Method: The stability of Iab was also evaluated, as described above, in Tris-HCl buffer (0.1 M, pH 7.5). The stability of Ibb was also evaluated, as described above, in Tris-HCl buffer (0.1 M, pH 7.5). The stability of Icb was also evaluated, as described above, in Tris-HCl buffer (0.1 M, pH 7.5).

[4] = Stability of prodrug in fresh EDTA blood (dog); settings: for Ibb: Ibb in fresh dog EDTA blood, 37° C., n = 2; for conversion of prodrug to parent in blood containing EDTA: dog blood, 37°C, 60 min (Iab) or 90 min (Ibb, Icb)
Method: as §2

[5] = Stability of prodrug in fresh EDTA blood (human); settings: for Ibb: Ibb in fresh human EDTA blood, 37° C., n = 2; for Iab / IVa Formed: Human EDTA blood
Method: as §2

[6] = Stability (hydrolysis) of prodrug in fresh serum (rat); settings: for Ibb: Ibb in fresh rat serum, 37° C., n = 2; for Iab / IVa Formed: Rat Serum
Method: as §2

[7] = Stability (hydrolysis) of prodrug in fresh serum (human); settings: for Ibb: Ibb in fresh human serum, 37° C., n = 2; for Iab / IVa Formed: Human Serum
[8] = Stability (hydrolysis) of prodrug in fresh serum (monkey); settings: for Ibb: Ibb in fresh monkey serum, 37° C., n = 2; for Iab / IVa Formed: Monkey Serum
Method: as §2

O=C(C(=O)N1CCN(C(=O)c2ccccc2)CC1)c1cn(COP(=O)(O)O)c2c(-n3ccnn3)ncc(F)c12 [Ibb, [3-[(4-benzoylpiperazin-1-yl)(oxo)acetyl]-4-fluoro-7-(1H-1,2,3-triazol-1-yl)-1H-pyrrolo[2,3-c]pyridin-1-yl]methyl dihydrogen phosphate, L-lysine salt (1:1)]
hydrolysis in the presence of hepatocytes (dog hepatocytes): hydrolyzed
hydrolysis in the presence of hepatocytes (monkey hepatocytes): No turnover was observed
hydrolysis in the presence of hepatocytes (human hepatocytes): hydrolyzed
half-life at 15 μM (in vitro [1]): 11.7 h
half-life at 15 μM (in vitro [2]): 0.25 h
stability / conversion of prodrug to parent in Tris-HCl buffer ([3]; 37°C): less than 2%
Ibb ([3]; 0 min): 14 µM
Ibb ([3]; 15 min): 12 µM
Ibb ([3]; 30 min): 13 µM
Ibb ([3]; 45 min): 12 µM
Ibb ([3]; 60 min): 13 µM
Ibb ([3]; 90 min): 12 µM
Ibb ([4]; 0 min): 13 µM
Ibb ([4]; 15 min): 12 µM
Ibb ([4]; 30 min): 15 µM
Ibb ([4]; 45 min): 16 µM
Ibb ([4]; 60 min): 13 µM
Ibb ([4]; 90 min): 16 µM
conversion of prodrug to parent in blood containing EDTA [4]: < 2%
Ibb ([5]; 0 min): 16 µM
Ibb ([5]; 15 min): 15 µM
Ibb ([5]; 30 min): 16 µM
Ibb ([5]; 45 min): 16 µM
Ibb ([5]; 60 min): 16 µM
Ibb ([5]; 90 min): 18 µM
conversion of prodrug to parent in blood containing EDTA ([5]; human blood, 37°C, 60 min (Iab) or 90 min (Ibb, Icb)): < 2%
Ibb ([6]; 0 min): 12 µM
Ibb ([6]; 15 min): 9.4 µM
Ibb ([6]; 30 min): 9.2 µM
Ibb ([6]; 45 min): 9.4 µM
Ibb ([6]; 60 min): 9.3 µM
Ibb ([6]; 90 min): 9.0 µM
Ibb ([7]; 0 min): 13 µM
Ibb ([7]; 15 min): 9.0 µM
Ibb ([7]; 30 min): 10 µM
Ibb ([7]; 45 min): 10 µM
Ibb ([7]; 60 min): 8.0 µM
Ibb ([7]; 90 min): 6.5 µM
Ibb ([8]; 0 min): 14 µM
Ibb ([8]; 15 min): 6.6 µM
Ibb ([8]; 30 min): 3.1 µM
Ibb ([8]; 45 min): 1.7 µM
Ibb ([8]; 60 min): 0.85 µM
Ibb ([8]; 90 min): 0.22 µM

COc1cnc(OC)c2c1c(C(=O)C(=O)N1CCN(C(=O)c3ccccc3)CC1)cn2COP(=O)(O)O [Iab, {3-[(4-benzoylpiperazin-1-yl)(oxo)acetyl]-4,7-dimethoxy-1H-pyrrolo[2,3-c]pyridin-1-yl}methyl dihydrogen phosphate, L-lysine salt (1:1)]
hydrolysis in the presence of hepatocytes (dog hepatocytes): hydrolyzed
hydrolysis in the presence of hepatocytes (monkey hepatocytes): hydrolyzed
hydrolysis in the presence of hepatocytes (human hepatocytes): hydrolyzed
half-life at 10 μM (in vitro [1]): 1.33 h
half-life at 10 μM (in vitro [2]): 6.08 h
stability / conversion of prodrug to parent in Tris-HCl buffer ([3]; 37°C): stable
Iab / IVa Formed ([3]; Tris-HCl buffer (0.1 M, pH 7.5), 37°C, 0 min): 10 µM
Iab / IVa Formed ([3]; Tris-HCl buffer, 20 min): 10 µM
Iab / IVa Formed ([3]; Tris-HCl buffer, 40 min): 7.6 µM
Iab / IVa Formed ([3]; Tris-HCl buffer, 60 min): 10 µM
conversion of prodrug to parent in blood containing EDTA [4]: approximately 6%
Iab / IVa Formed ([5]; 0 min): 11 µM
Iab / IVa Formed ([5]; 15 min): 11 µM
Iab / IVa Formed ([5]; 30 min): 7.1 µM
Iab / IVa Formed ([5]; 45 min): 9.8 µM
Iab / IVa Formed ([5]; 60 min): 9.8 µM
Iab / IVa Formed ([6]; 37°C, 0 min): 6.8 µM
Iab / IVa Formed ([6]; 15 min): 5.8 µM
Iab / IVa Formed ([6]; 30 min): 5.4 µM
Iab / IVa Formed ([6]; 45 min): 4.9 µM
Iab / IVa Formed ([6]; 60 min): 4.3 µM
Iab / IVa Formed ([6]; 90 min): 3.3 µM
Iab / IVa Formed ([7]; 37°C, 0 min): 9.5 µM
Iab / IVa Formed ([7]; 15 min): 9.2 µM
Iab / IVa Formed ([7]; 30 min): 9.0 µM
Iab / IVa Formed ([7]; 45 min): 9.6 µM
Iab / IVa Formed ([7]; 60 min): 9.1 µM
Iab / IVa Formed ([7]; 90 min): 9.4 µM
Iab / IVa Formed ([8]; 37°C, 0 min): 9.0 µM
Iab / IVa Formed ([8]; 15 min): 7.3 µM
Iab / IVa Formed ([8]; 30 min): 6.8 µM
Iab / IVa Formed ([8]; 45 min): 6.5 µM
Iab / IVa Formed ([8]; 60 min): 6.3 µM
Iab / IVa Formed ([8]; 90 min): 6.3 µM
